Source: patent publication US20090054526A1, “INHIBITORS OF ANOREXIC LIPID HYDROLYSIS FOR THE TREATMENT OF EATING DISORDERS” (priority 2005, published 2009)

Columns and labels:
[1] = system: acylethanolamide hydrolyzing enzyme (FAAH and an enzyme different from FAAH) in rat intestinal homogenate; assay: OEA and anandamide (acylethanolamide) hydrolysis in rat intestinal homogenate; type: biochemical; conditions: for inhibition of OEA hydrolysis: pH 7.0, 50 μM 3H-OEA, 20 min, inhibitor concentration not given ('same concentration')
Experimental: Enzymatic hydrolysis of OEA is investigated in an assay containing 5-500 μg of intestinal protein incubated with 1-500 μM of ^3H-OEA ([1-^3H-ethanolamine]OEA and dilutions thereof with non-radioactive OEA to obtain a specific activity of 0.1-100,000 dpm/pmol) or ^3H-anandamide ([1−^3H-ethanolamine]anandamide and dilutions thereof with non-radioactive anandamide to obtain a specific activity of 0.1-100,000 dpm/pmol) in a total volume of 100-500 μl of 10-100 mM buffer (pH 3-11), initially utilizing 100 mM Tris-HCl (pH 8.0) containing 0-2 mM EDTA and 0-5 mg/ml of fatty acid-free bovine serum albumin with or without addition of D-erythro-MAPP (or a related compound; dissolved in 1-10 μl ethanol) in a final concentration of 0.0001-1000 μM (1-10 μl ethanol is added to control assays). Incubations are carried out at 37° C. for 0-120 min and samples are withdrawn at 2-3 time points. The reaction in a sample is terminated by addition of 200-1000 μl of chloroform:methanol (1:1 v/v) and cooling on ice, followed by 10 min centrifugation at low speed, where after 50-250 μl of the upper phase is extracted and the radio-labeled product ethanolamine formed is quantified by liquid scintillation counting. […]
The reaction in a sample is terminated by addition of 400 μl chloroform:methanol (1:1 v/v) and cooling on ice, followed by 10 min centrifugation at low speed, where after 100 μl of the upper phase is extracted and the radio-labeled product ethanolamine formed is quantified by liquid scintillation counting. In another set of experiments the following assay conditions are adjusted—in order to be identical to those of the ceramidase assay (see example 1B)—by using 25 μg of protein from rat intestinal (jejunum) homogenate in a total volume of 100 μl, 50 μM of ^3H-oleoylethanolamide (OEA; 25.000 dpm) or ^3H-anandamide (AEA; 25.000 dpm), 100 mM citrate phosphate (7.0), 8 mM CHAPS. […] Incubation at 37° C. is carried out for 0 and 20 min after establishment of linearity of product formation within this time frame. […]

ceramidase = assay: Ceramide hydrolysis in rat intestinal homogenate; type: biochemical; conditions: for inhibition of ceramide hydrolysis: pH 7.0, 50 μM 14C-octanoyl-D-sphingosine, 25 μg protein, 20 min, inhibitor concentration not given ('same concentration')
Experimental: Enzymatic hydrolysis of ceramide is measured in an assay containing 5-500 μg of intestinal protein incubated with 1-5000 μM of ^14C-ceramide [(N-[1-^14C]acyl-D-erythro sphingosine (with the acyl group being from six to twenty carbon atoms) and dilutions thereof with non-radioactive ceramide to obtain a specific activity of 0.1-100,000 dpm/pmol], which is sonicated in buffer or added in 5-50 μl of ethanol, to a total volume of 50-500 μl of 10-100 mM buffer (pH 3-11) initially utilizing 100 mM Tris-HCl (pH 8.0) containing 0-100 mM CHAPS, 0-10 mM DTT, 0-1% Nonidet P-40, 0-5 mg/ml of bovine serum albumin, and 0-500 mM NaCl with or without addition of D-erythro-MAPP (or a related compound; dissolved 1-10 μl ethanol) in a final concentration of 0.0001-1000 μM (1-10 μl ethanol is added to control assays). Incubations are carried out at 37° C. for 0-120 min and samples are withdrawn at 2-3 time points. The reaction in each sample is terminated by addition of 200-1000 μl of methanol:chloroform:heptane (28:25:20 v/v/v) and 50-400 μl of potassium carbonate buffer (pH 10). After mixing, the samples are centrifuged 1-20 min at low speed centrifugation and 50-400 μl of the upper phase is extracted and the radio-labeled product, free fatty acid, in the upper phase is quantified by liquid scintillation counting. From selected samples, another 50-400 μl aliquot of the upper phase as well as 50-400 μl of the lower phase are evaporated to dryness under a stream of nitrogen, re-dissolved in 10-200 μl of chloroform:methanol (19:1 v/v) and applied on thin-layer chromatography plates, eluted in chloroform:methanol:acetic acid (94:1:5 v/v/v) followed by quantification of the distribution of the radiolabeled free fatty acid in the two phases using a Phosphorlmager scanner (STORM; Molecular Dynamics, Sunnyvale, Calif., USA) and ImageQuant software (GE Health Care, Amersham, United Kingdom). The distribution of released fatty acid is used to calculate the total amount of product formed in each sample. […]

dietary obese mice = assay: Sub-chronic food intake, water intake and body weight study in dietary obese mice; type: in vivo; conditions: for cumulative food intake: D-threo-NMAPPD 30 mg/kg, OEA 2 mg/kg, or both mixed, high-fat diet, mean±SEM
Experimental: Food intake studies are performed with male Sprague-Dawley rats (250-350 g) or male C57BL/6J mice (Charles River, Sulzfeld, Germany). […] These animals are left on the diet for 12 weeks before the experiment is commenced. The animals are group randomized into weight-matched groups of n=4-12 to receive up to four administrations (0.1-10 ml/kg p.o., i.p., s.c., or i.v.) of a test compound (e.g. MAPP or NMAPPD) or vehicle (saline optionally with Tween 80, polyethylene glycol, DMSO, ethanol, Cremophor excipient) with at least seven days interval. All compounds are administered just prior to the beginning of the dark period optionally after a 24 h fasting period. Food intake (digital balance) and water intake (registered gravimetrically or by means of lick counts) and activity (consecutive beam breaks) are monitored for at least 12 hours following the time of injection. After the treatment, the animals are euthanized by use of CO2 followed by decapitation.
3C. Furthermore, a study with dietary obese mice was carried out. After 12 weeks on high-fat diet, animals were stratified according to weight. At day −3, animals were randomised in 5 groups (n=9-10 in each group) to participate in one of following drug treatment groups; vehicle (5% Tween 80, 5% polyethylene glycol, 90% saline), OEA 2 mg/kg, OEA 5 mg/kg, D-threo-NMAPPD 30 mg/kg, D-threo-NMAPPD 30 mg/kg+OEA 2 mg/kg (mixed). The animals received one intraperitoneal injection daily (2 ml/kg) of vehicle or drug(s) suspended in vehicle at […]. The experiment was preceded by a 3 day run-in period with mock injections and handling to habituate the animals to the injection paradigm. On day 0 the animals were dosed for the first time. All animals were fed high-fat diet ad lib—also during the treatment period. Body weight, food and water intake was measured every other day for the following 14 days depending on the animal's state.

diet-induced obese rats = conditions: 5 mg/kg OEA i.p. daily, from day 2 and on, refs (9,22); cited from earlier work
diet-induced obese mice = conditions: 5 mg/kg OEA i.p. daily, from day 2 and on, refs (9,22); cited from earlier work

Compound: CCCCCCCCCCCCCC(=O)N[C@H](CO)[C@H](O)c1ccc([N+](=O)[O-])cc1 [D-threo-NMAPPD, (1R,2R) D-threo-N-myristoyl-2-amino-1-(4′-nitrophenyl)-1,3-propandiol]
- inhibition of OEA hydrolysis ([1]; 25 μg protein): 30%
- dose dependence of inhibition of OEA hydrolysis ([1]; pH 7.0, increasing concentrations (FIG. 2C)): dose-dependent inhibition
- inhibition of ceramide hydrolysis (ceramidase): 30%
- food intake versus vehicle (dietary obese mice; D-threo-NMAPPD 30 mg/kg i.p. daily (alone and with OEA 2 mg/kg), from day 1): consistently and significantly reduced
- water intake versus vehicle (dietary obese mice; daily i.p., D-threo-NMAPPD 30 mg/kg at day 1 and day 12, or with OEA 2 mg/kg (FIG. 4B)): significant decreased water intake
- loss of body weight (dietary obese mice; day 12, daily i.p., D-threo-NMAPPD 30 mg/kg alone or with OEA 2 mg/kg, vehicle 3.7%): 8.9%
- cumulative food intake (dietary obese mice; day 12, daily i.p.): 20.4 ± 1.2 g

Compound: CCCCCCCCCCCCCC(=O)N[C@H](C)[C@@H](O)c1ccccc1 [D-erythro-MAPP, (1S,2R) D-erythro-N-myristoyl-2-amino-1-phenyl-propanol]
- inhibition of OEA hydrolysis ([1]; 25 μg protein): 11%
- effect on AEA hydrolysis ([1]; pH 7.0, 50 μM 3H-anandamide, inhibitor concentration not clearly printed): unaffected
- inhibition of ceramide hydrolysis (ceramidase): approximately 24%

Compound: NC(=O)c1cccc(-c2cccc(OC(=O)NC3CCCCC3)c2)c1 [URB597, cyclohexyl carbamic acid 3′-carbamoyl-biphenyl-3-yl ester, reference compound]
- effect on hydrolysis of OEA and AEA over pH range ([1]; 10 μM URB597, pH 5.5 to pH 10.5 (FIG. 3C)): to varying degrees were inhibited
- inhibition of acylethanolamide hydrolysis ([1]; 10 μM inhibitor, pH 7.0, 50 μM substrate, 25 μg protein, 20 min 37° C. (FIG. 2A)): approximately 79%
- effect on ceramide hydrolysis over pH range (ceramidase; 10 μM URB597, pH profile (FIG. 3C)): completely unaffected

Compound: CCCCCCCC/C=C\CCCCCCCC(=O)NCCO [OEA, oleoylethanolamide, reference compound]
- body weight change (diet-induced obese rats): reduced body weight change
- food intake versus vehicle (dietary obese mice; OEA 2 mg/kg i.p. daily, day 12): not significantly different
- food intake versus vehicle (dietary obese mice; OEA 5 mg/kg i.p. daily, day 5 and 7): significantly reduced food intake
- cumulative food intake (dietary obese mice; day 12, daily i.p.): 23.3 ± 1.0 g
- body weight change (diet-induced obese mice): reduced body weight change
